Literature values as cited in patent US12268783B2, “Platform drug delivery system utilizing crystal engineering and theanine dissolution” (THEAPRIN PHARMACEUTICALS, INC., priority 2015, dated 2025).

Test system: Chironex fleckeri venom
Conditions: mice following venom injection

In the case of zinc gluconate, the survival time is given as “prolonged survival time”.
